Assay results from ChEMBL document CHEMBL2380277, “A new synthesis of 4'-resveratrol esters and evaluation of the potential for anti-depressant activity” (Bioorg Med Chem Lett, 2013).
The source made the active and inactive calls. The calls are words filed in the database; no cut-off is given here.

Legend:
Rattus norvegicus [1] = test: Toxicity in Long-Evans rat assessed as food intake at 20 mg/kg, sc measured after 20 to 21 days (reference value: 33.8 +/- 1.8 g); type: organism-based; set-up: dose 20 mg/kg, route subcutaneous; details: in vivo
Rattus norvegicus [2] = test: Toxicity in Long-Evans rat assessed as food intake at 90 mg/kg, sc measured after 8 to 9 days (reference value: 33.1 +/- 1.5 g); type: organism-based; set-up: dose 90 mg/kg, route subcutaneous; details: in vivo
Rattus norvegicus [3] = test: Toxicity in Long-Evans rat assessed as hypothalamic aromatase level at 20 mg/kg, sc measured per mg of protein measured for 21 days (reference value: 60 +/- 6.1 pmol/hr); type: organism-based; set-up: dose 20 mg/kg, route subcutaneous; details: in vivo, 504 h
Rattus norvegicus [4] = test: Toxicity in Long-Evans rat assessed as food intake at 20 mg/kg, sc measured after 8 to 9 days (reference value: 33.1 +/- 1.5 g); type: organism-based; set-up: dose 20 mg/kg, route subcutaneous; details: in vivo
Rattus norvegicus [5] = test: Antidepressant activity in Long-Evans rat assessed as effect on inverts at 20 to 90 mg/kg, sc administered 21 days measured for 6 mins by Porsalt forced-swim test relative to vehicle-treated control; type: functional, organism-based
Rattus norvegicus [6] = test: Toxicity in Long-Evans rat assessed as food intake at 90 mg/kg, sc measured after 20 to 21 days (reference value: 33.8 +/- 1.8 g); type: organism-based; set-up: dose 90 mg/kg, route subcutaneous; details: in vivo
Rattus norvegicus [7] = test: Toxicity in Long-Evans rat assessed as water intake at 20 mg/kg, sc measured after 20 to 21 days (reference value: 50.7 +/- 3.5 mL); type: organism-based; set-up: dose 20 mg/kg, route subcutaneous; details: in vivo
Rattus norvegicus [8] = test: Toxicity in Long-Evans rat assessed as hypothalamic aromatase level at 90 mg/kg, sc measured per mg of protein measured for 21 days (reference value: 60 +/- 6.1 pmol/hr); type: organism-based; set-up: dose 90 mg/kg, route subcutaneous; details: in vivo, 504 h
Rattus norvegicus [9] = test: Antidepressant activity in Long-Evans rat assessed as mobile index at 20 mg/kg, sc administered 21 days measured for 6 mins by Porsalt forced-swim test (reference value: 286 +/- 8.7 secs); type: functional; details: route subcutaneous
Rattus norvegicus [10] = test: Toxicity in Long-Evans rat assessed as change in estrous cycle pattern at 20 to 90 mg/kg, sc measured for 8 days by vaginal histological analysis; type: organism-based; set-up: dose 20-90 mg/kg, route subcutaneous; details: in vivo, 192 h
Rattus norvegicus [11] = test: Toxicity in Long-Evans rat assessed as white adipose tissue weight at 20 to 90 mg/kg, sc measured after 21 days; type: organism-based; set-up: dose 20-90 mg/kg, route subcutaneous; details: in vivo, 504 h
Rattus norvegicus [12] = test: Toxicity in Long-Evans rat assessed as white adipose tissue weight/body weight ratio at 20 to 90 mg/kg, sc measured after 21 days; type: organism-based; set-up: dose 20-90 mg/kg, route subcutaneous; details: in vivo, 504 h
Rattus norvegicus [13] = test: Antidepressant activity in Long-Evans rat assessed as effect on number of boli excreted at 20 to 90 mg/kg, sc administered 21 days measured for 6 mins by Porsalt forced-swim test relative to vehicle-treated control; type: functional, organism-based
Rattus norvegicus [14] = test: Toxicity in Long-Evans rat assessed as water intake at 90 mg/kg, sc measured after 8 to 9 days (reference value: 53.3 +/- 2.7 mL); type: organism-based; set-up: dose 90 mg/kg, route subcutaneous; details: in vivo
Rattus norvegicus [15] = test: Antidepressant activity in Long-Evans rat assessed as mobile index at 90 mg/kg, sc administered 21 days measured for 6 mins by Porsalt forced-swim test (reference value: 286 +/- 8.7 secs); type: functional; details: route subcutaneous
HL-60 = test: Cytotoxicity against human HL60 cells; type: functional; details: read-out: ED50 (the source's name)
Rattus norvegicus [16] = test: Antidepressant activity in Long-Evans rat assessed as effect on dives at 20 to 90 mg/kg, sc administered 21 days measured for 6 mins by Porsalt forced-swim test relative to vehicle-treated control; type: functional, organism-based
Rattus norvegicus [17] = test: Antidepressant activity in Long-Evans rat assessed as effect on swim speed at 20 to 90 mg/kg, sc administered 21 days measured for 6 mins by Porsalt forced-swim test relative to vehicle-treated control; type: functional, organism-based
Rattus norvegicus [18] = test: Toxicity in Long-Evans rat assessed as water intake at 90 mg/kg, sc measured after 20 to 21 days (reference value: 50.7 +/- 3.5 mL); type: organism-based; set-up: dose 90 mg/kg, route subcutaneous; details: in vivo
Rattus norvegicus [19] = test: Toxicity in Long-Evans rat assessed as water intake at 20 mg/kg, sc measured after 8 to 9 days (reference value: 53.3 +/- 2.7 mL); type: organism-based; set-up: dose 20 mg/kg, route subcutaneous; details: in vivo
[20] = Half life in human; type: ADME, organism-based; details: in vivo

In the case of `CC(=O)Oc1ccc(/C=C/c2cc(O)cc(O)c2)cc1`, the Activity (Rattus norvegicus [1]) is reported as 35.2 g, the Activity (Rattus norvegicus [2]) is reported as 35.2 g and the Activity (Rattus norvegicus [3]) is reported as 71 pmol/h. For the same compound, the Activity (Rattus norvegicus [4]) was 34.3 g, the Activity (Rattus norvegicus [5]) was “Active” and the Activity (Rattus norvegicus [6]) was 36.9 g. The Activity (Rattus norvegicus [7]) was 50.9 mL, the Activity (Rattus norvegicus [8]) was 73 pmol/h and the Time (Rattus norvegicus [9]) was 312 s. The Activity (Rattus norvegicus [10]) was “Non-toxic”, the Activity (Rattus norvegicus [11]) was 6.6 g and the Ratio (Rattus norvegicus [12]) was 2.4. For the same compound, the Activity (Rattus norvegicus [13]) was “Active”, the Activity (Rattus norvegicus [14]) was 56.7 mL and the Time (Rattus norvegicus [15]) was 319 s. For the same compound, the EC50 (HL-60) was 17 µM, the Activity (Rattus norvegicus [16]) was “Active” and the Activity (Rattus norvegicus [17]) was “Active”. It also gave an Activity (Rattus norvegicus [18]) of 55.8 mL and an Activity (Rattus norvegicus [19]) of 52.1 mL.
Work on `Oc1ccc(/C=C/c2cc(O)cc(O)c2)cc1` [RESVERATROL] yielded a half-life [20] of 30 min and an EC50 (HL-60) of 22 µM.
